Patent US6359054B1, “Polynucleotide compositions for intramuscular administration” (priority 1994, dated 2002)
Where “and” joins values, the source holds several entries; their conditions need not be identical. Equal values may be shown once. {C11P} = undecylphosphate group; {Acr} = acridine conjugate

What was measured:
HSV-1 [1] = experiment: HSV-1 infectivity of medium of infected BHK cells; assay type: cell-based, Herpes Simplex Virus 1; details: oligonucleotide 3.0 μM
HSV-1 [2] = tested on: HSV-1; parameters: species or system mice; details: mouse, in vivo

“Free Anti-HSV: 12-chain oligonucleotide CGTTCCTCCTGU, 5′ undecylphosphate and 3′ acridine modified, complementary to HSV-1 splicing site (5' {C11P}, 3' {Acr}, sugars by position and backbone not given here)” was tested, and the “HSV-1 infectious titre n = 7” value (HSV-1 [1]) was 50(±14) × 10^2 CPE50/ml, the “% Survival” value (HSV-1 [2]) was 7.0% and the “Survived animals/Amount of Animals in a group” value (HSV-1 [2]) was 1/10 and 0/10.
